Data on eight compounds can be found in ChEMBL document CHEMBL1201862, “PubChem BioAssay data set” (2004).

For orientation: GI50 means the concentration at which growth is held to half of that of the control.

Some test systems named below: A549; ACHN; BT-549; CAKI-1; COLO 205; Hs-578T; IGROV-1; KM12; M14; Malme-3M; NCI-H226; NCI-H522; OVCAR-5; OVCAR-8; PC-3; SF-539; SK-MEL-28; SNB-75; UACC-257.
Holding throughout (assay): DTP human tumour cell line panel, 48 h

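Grown in 96-well plates, cells were treated for 48 hours with each compound at five concentrations. Insufficient inhibition: endpoint recorded as highest concentration tested. The concentration for 50% growth inhibition is given as GI50.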 Calls of active or inactive are those of the source. Rule as the data show it: active = GI50 up to about 1.1 µM and inactive = higher.

As for `CC(=O)O[C@H]1CC[C@@]2(C)C(=CC[C@H]3[C@@H]4C/C(=C\c5ccncc5)[C@H](OC(C)=O)[C@@]4(C)CC[C@@H]32)C1`, the GI50 in the assay on A549 was 6.08 µM (inactive); with ACHN it was 15.1 µM (inactive); in the assay on BT-549 it was 3.28 µM (inactive); in the assay with CAKI-1 it was 11.2 µM (inactive); in the assay with COLO 205, 4.08 µM (inactive); with Hs-578T it was 6.97 µM (inactive). For the same compound, the GI50 in the assay on IGROV-1 was 11.6 µM (inactive); in the assay with KM12 it was 4.57 µM (inactive); in the assay with M14, 10.9 µM (inactive); with Malme-3M it was 7.67 µM (inactive); with NCI-H226, 11.8 µM (inactive); in the assay on NCI-H522, 3.65 µM (inactive). For the same compound, the GI50 with OVCAR-5 is 16.9 µM (inactive); with OVCAR-8, 11.8 µM (inactive); in the assay with PC-3 it was 18.2 µM (inactive); in the assay on SF-539, 3.95 µM (inactive); with SK-MEL-28 it was 5.74 µM (inactive); in the assay with SNB-75, 7.62 µM (inactive). For the same compound, the GI50 in the assay with UACC-257 is 16.9 µM (inactive).

As to `CC1(C)N=C(N)N=C(N)N1c1cccc(CSc2ccccc2)c1`, the 50% growth inhibitory concentration (GI50) in the assay on A549 is 0.0301 µM (active); with ACHN it was 34.4 µM (inactive); in the assay on BT-549, 15.9 µM (inactive); with CAKI-1, 23.6 µM (inactive); in the assay with COLO 205, 0.794 µM (active); with Hs-578T, 2.83 µM (inactive). Moreover, the GI50 in the assay with IGROV-1 is 0.0301 µM (active); with KM12, 0.718 µM (active); in the assay on M14, 0.346 µM (active); in the assay on Malme-3M, 8.89 µM (inactive); in the assay with NCI-H226, 0.916 µM (active); in the assay on NCI-H522, 0.318 µM (active). Besides, the GI50 in the assay with OVCAR-5 is 52.1 µM (inactive); in the assay with OVCAR-8, 3.16 µM (inactive); in the assay on PC-3, 3.73 µM (inactive); in the assay on SF-539, 0.461 µM (active); in the assay with SK-MEL-28, 0.805 µM (active); with SNB-75, 4.42 µM (inactive). The GI50 in the assay with UACC-257 was 3.85 µM (inactive).

Take `CCOC(=O)/C=C(\C(=O)OCC)n1ccc(=O)n(CC(=O)OCC)c1=O`: the GI50 in the assay with A549 is 17.2 µM (inactive); with ACHN, 1.64 µM (inactive); in the assay with BT-549, 11.7 µM (inactive); with CAKI-1, 0.638 µM (active); in the assay with COLO 205, 1.26 µM (inactive); in the assay on Hs-578T, 20 µM (inactive). Besides, the GI50 in the assay on IGROV-1 was 6.82 µM (inactive); in the assay with KM12, 15.1 µM (inactive); with M14, 2.09 µM (inactive); in the assay on Malme-3M, 2.48 µM (inactive); with NCI-H226 it was 6.52 µM (inactive); in the assay with NCI-H522, 1 µM (active). In addition, the GI50 in the assay with OVCAR-5 is 4.95 µM (inactive); with OVCAR-8 it was 5.25 µM (inactive); in the assay on PC-3, 4.74 µM (inactive); in the assay with SF-539 it was 16.6 µM (inactive); in the assay on SK-MEL-28 it was 6.25 µM (inactive); with SNB-75, 9.75 µM (inactive). The GI50 with UACC-257 is 11.6 µM (inactive).

In the case of `CCn1cc(C(=O)O)c(=O)c2cc(F)c(N3CCN(CN4C(=O)/C(=N\NC(=O)c5ccncc5)c5cc(Cl)ccc54)CC3)cc21`, the GI50 in the assay with A549 is 57.3 µM (inactive); with ACHN, 37.3 µM (inactive); in the assay on BT-549, 91.6 µM (inactive); with CAKI-1 it was 23.7 µM (inactive); in the assay on COLO 205, 52.7 µM (inactive); with Hs-578T it was 45.2 µM (inactive). Besides, the GI50 is 18.3 µM (inactive) in the assay with IGROV-1; 40.3 µM (inactive) in the assay with KM12; 54 µM (inactive) with M14; 86.1 µM (inactive) in the assay on Malme-3M; > 100 µM (inactive) in the assay on NCI-H226; 21.8 µM (inactive) in the assay with NCI-H522. Moreover, the GI50 was > 100 µM (inactive) in the assay with OVCAR-5; 28.5 µM (inactive) in the assay with OVCAR-8; 38.5 µM (inactive) with PC-3; 24.7 µM (inactive) in the assay on SF-539; 59.2 µM (inactive) in the assay on SK-MEL-28; 25.5 µM (inactive) in the assay on SNB-75. Also, in the assay on UACC-257, the GI50 is 37.6 µM (inactive).

As to `O=C(O)c1ccccc1-c1ccccc1C(=O)Nc1ccc2c(c1)Cc1ccccc1-2`, the GI50 in the assay on A549 was 29.2 µM (inactive); with ACHN it was 30.3 µM (inactive); in the assay on BT-549 it was 29.9 µM (inactive); in the assay with CAKI-1, 51.9 µM (inactive); in the assay on COLO 205, 17.2 µM (inactive); in the assay with Hs-578T, 48.5 µM (inactive). The GI50 was 49.3 µM (inactive) in the assay on IGROV-1; 32.4 µM (inactive) in the assay with KM12; 21.6 µM (inactive) in the assay with M14; 42.5 µM (inactive) with Malme-3M; 67.6 µM (inactive) in the assay on NCI-H226; 21.3 µM (inactive) in the assay on NCI-H522. Also, the GI50 was 21.9 µM (inactive) in the assay on OVCAR-5; 43.6 µM (inactive) in the assay with OVCAR-8; 41.1 µM (inactive) in the assay with PC-3; 21.9 µM (inactive) with SF-539; 40.8 µM (inactive) with SK-MEL-28; 68.4 µM (inactive) in the assay on SNB-75. Besides, the GI50 in the assay on UACC-257 is 28.3 µM (inactive).

For `OC1(c2ccccc2)CSC2=Nc3ccccc3C3CCN1N23` (configuration not stated), the GI50 in the assay with A549 is 26.8 µM (inactive); with ACHN it was 19 µM (inactive); in the assay on BT-549 it was 23.1 µM (inactive); with CAKI-1, 21.1 µM (inactive); in the assay on COLO 205, 17.7 µM (inactive); in the assay on Hs-578T, 24.2 µM (inactive). Besides, the GI50 is 13.3 µM (inactive) in the assay with IGROV-1; 16.7 µM (inactive) in the assay with KM12; 21.9 µM (inactive) in the assay with M14; 22.4 µM (inactive) in the assay with Malme-3M; 38.1 µM (inactive) in the assay on NCI-H226; 20 µM (inactive) in the assay on NCI-H522. Besides, the GI50 with OVCAR-5 was 11.1 µM (inactive); in the assay on OVCAR-8, 19.5 µM (inactive); in the assay on PC-3, 15.3 µM (inactive); in the assay on SF-539 it was 16.9 µM (inactive); in the assay with SK-MEL-28, 4.16 µM (inactive); in the assay with SNB-75 it was 3.75 µM (inactive). Further, the GI50 in the assay with UACC-257 is 23.4 µM (inactive).

For the compound `CSc1cccc(NC(=O)OC2CCCCCCCCCCC2)c1`, the GI50 in the assay with A549 is 26.9 µM (inactive); with ACHN, 27.7 µM (inactive); in the assay with BT-549 it was 34.8 µM (inactive); in the assay on CAKI-1, 17.6 µM (inactive); in the assay on COLO 205 it was 14.5 µM (inactive); with Hs-578T it was 34.4 µM (inactive). Also, the GI50 is 33.4 µM (inactive) in the assay with IGROV-1; 13.3 µM (inactive) with KM12; 22.3 µM (inactive) in the assay on M14; 24.8 µM (inactive) in the assay with Malme-3M; 29.9 µM (inactive) in the assay on NCI-H226; 13.2 µM (inactive) in the assay on NCI-H522. For the same compound, the GI50 in the assay with OVCAR-5 is 30.3 µM (inactive); in the assay with OVCAR-8, 26.7 µM (inactive); with PC-3, 31 µM (inactive); in the assay on SF-539, 24.4 µM (inactive); in the assay on SK-MEL-28, 39.7 µM (inactive); with SNB-75, 35.2 µM (inactive). In addition, the GI50 in the assay on UACC-257 was 16 µM (inactive).

`C/C(Cl)=N\OC(=O)Nc1ccc([N+](=O)[O-])cc1`: the GI50 in the assay on A549 is 21.6 µM (inactive); with ACHN it was 4.73 µM (inactive); in the assay on BT-549, 23 µM (inactive); in the assay on CAKI-1, 5.21 µM (inactive); in the assay with COLO 205 it was 2.49 µM (inactive); with Hs-578T, 25 µM (inactive). The GI50 in the assay with IGROV-1 was 17.5 µM (inactive); in the assay with KM12, 15.5 µM (inactive); in the assay on M14, 12.9 µM (inactive); in the assay with Malme-3M, 3.01 µM (inactive); in the assay with NCI-H226, > 100 µM (inactive); in the assay with NCI-H522 it was 1.99 µM (inactive). Moreover, the GI50 in the assay on OVCAR-5 is 16.4 µM (inactive); in the assay with OVCAR-8 it was 15.1 µM (inactive); with PC-3, 16.2 µM (inactive); with SF-539, 16.3 µM (inactive); in the assay with SK-MEL-28, 17.2 µM (inactive); with SNB-75, 16.7 µM (inactive). For the same compound, in the assay on UACC-257, the GI50 is 16.8 µM (inactive).
